Measured values from patent US7718768B2, “Biologically active peptide [sequence]” (CMS Peptides Patent Holding Company Limited, priority 2001, dated 2010).
Marks after values point to notes of the source that are not given here. No end group written: not given here.

B1: IFN-γ: recombinant mouse interferon-γ, Beijing Biotech Inc.; positive control immunostimulant (protein, UniProt P01580 23-155, looked up)
Interferon gamma: HGTVIESLESLNNYFNSSGIDVEEKSLFLDIWRNWQKDGDMKILQSQIISFYLRLFEVLKDNQAISNNISVIESHLITTFFSNSKAKKDAFMSIAKFEVNNPQVQRQAFNELIRVVHQLLPESSLRKRKRSRC

How the values were obtained:
Type in all cases: in vivo, BALB/c mice
[1] = test system: NK cell; experiment: NK cell cytotoxicity activity test (YAC-1 target cells, MTT) on spleen cells of treated mice; settings: IFN-γ and IL-2 groups 3×10^5 IU/kg/day, X ± SD
Method: The above substances were all dissolved in 0.5 ml saline and injected intraperitoneal (i.p.) for 15 continuous days, once per day.
Ten mice per group. The day after the last test substance administration, the mice were sacrificed by cervical dislocation. The spleen was isolated aseptically and manually dispersed in cold D-Hank's solution using an injection needle. The dispersed cell suspension was further sieved through a 100 gauge 150 μm diameter stainless steel sieve. After centrifugation at 200 g for 10 minutes, the supernatant was discarded. The cell pellet was re-suspended in 10 volume of Tris-NH4Cl buffer and then kept standing still for 10 minutes at room temperature. The suspended cells were collected by centrifugation at 150 g for 10 minutes. The cells were washed 2-4 times with cold D-Hank's solution by re-suspending and collecting by centrifugation with condition as described above. The washed cells were then diluted to the desired cell densities by RPMI-1640 culture medium, containing 10% fetal bovine serum.
Mice spleen cells were prepared to 4×10^6/ml as described in section 1.1 above. Target cells YAC-1 were brought to log phase and adjusted to 1×10^5/ml. Using a 96 wells cell culture plate, 100 μl mouse spleen cells and 100 μl culture medium were added to the control well containing only the spleen cells; 100 μl target cells and 100 μl culture medium were added to the control well containing only target cells; 100 μl mouse spleen cells and 100 μl target cells were added to the NK activity assay well. Three parallel sets of the above were prepared per mouse.
Samples were centrifuged at 150 g for 10 minutes to collect the cells. The supernatant was discarded and 50 μl/well MTT of 1 mg/ml was added. The reaction mixture was then shaken for 2 minutes, and incubated at 37° C., 5% CO2 for 4 hours. The supernatant was discarded after centrifugation at 150 g for 10 minutes. 120 μl 40 mM HCl-2-propanol was added and shaken for 3 minutes. An ELISA reader was used to obtain OD570nm of each well referenced at 630 nm.

[2] = test system: anti-SRBC antibody; experiment: Sheep Red Blood Cell (SRBC) hemolysis test, anti-SRBC antibody formation; settings: SRBC on day 12, IFN-γ and IL-2 groups 3×10^5 IU/kg/day, X ± SD
In short: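 Mice got test substances plus 0.2 ml SRBC i.p. on day 12; serum taken day 16, diluted 500-fold, mixed with 2% SRBC and guinea pig complement, 10 min at 37 °C. Lysis read as OD540nm after Drabkin's, indexed against a reference SRBC OD540nm.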

[3] = immunity organ weight test (thymus gland index, spleen index); settings: X ± SD
In short: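 Substances in saline given i.p. once daily for 15 days; on day 16 liver, spleen and thymus excised, blotted and weighed. Thymus and spleen indices = organ weight/body weight ×100%; phagocytosis index α from body weight and liver-plus-spleen weight.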

[4] = test system: mononuclear phagocyte; experiment: carbon particle clearance test, phagocytotic activity of mononuclear phagocyte; set-up: key: α = (cube root of K)×(body weight ÷ liver+spleen weight); settings: IFN-γ and IL-2 groups 3×10^5 IU/kg/day, X ± SD
In short: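 Mice received India ink (0.1 ml/kg i.v., 5-fold diluted) on day 16, one day after last dosing; blood at 1 and 5 min was lysed in 0.1% Na2CO3 and read at OD680. Clearance index K from log OD decline; phagocytic index α = ∛K × body weight/(liver+spleen weight); thymus and spleen indices as % body weight.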

[5] = peptide 500 μg/kg/day i.p. 15 days
[6] = peptide 5 μg/kg/day i.p. 15 days
[7] = peptide 50 μg/kg/day i.p. 15 days
[8] = peptide 0.5 μg/kg/day i.p. 15 days, IFN-γ and IL-2 groups 3×10^5 IU/kg/day
[9] = peptide 5 μg/kg/day i.p. 15 days, IFN-γ and IL-2 groups 3×10^5 IU/kg/day
[10] = peptide 50 μg/kg/day i.p. 15 days, IFN-γ and IL-2 groups 3×10^5 IU/kg/day
[11] = peptide 500 μg/kg/day i.p. 15 days, IFN-γ and IL-2 groups 3×10^5 IU/kg/day
[12] = peptide 0.5 μg/kg/day i.p. 15 days

| Molecule | NK cell cytotoxic activity (NK cell activity index) [1, 5] | anti-SRBC antibody formation (sample serum index) [2, 6] | anti-SRBC antibody formation (sample serum index) [2, 7] | weight of thymus gland (thymus gland index) [3, 8] | weight of thymus gland (thymus gland index) [3, 9] | weight of thymus gland (thymus gland index) [3, 10] | weight of thymus gland (thymus gland index) [3, 11] | phagocytotic index [4, 6] | phagocytotic index [4, 5] | NK cell cytotoxic activity (NK cell activity index) [1, 12] [%] | NK cell cytotoxic activity (NK cell activity index) [1, 6] | anti-SRBC antibody formation (sample serum index) [2, 5] | weight of spleen (spleen index) [3, 10] [%] | NK cell cytotoxic activity (NK cell activity index) [1, 7] [%] | anti-SRBC antibody formation (sample serum index) [2, 12] | weight of spleen (spleen index) [3, 5] [%] | weight of spleen (spleen index) [3, 8] [%] | weight of spleen (spleen index) [3, 6] [%] | phagocytotic index [4, 12] | phagocytotic index [4, 7] |
| --- | --- | --- | --- | --- | --- | --- | --- | --- | --- | --- | --- | --- | --- | --- | --- | --- | --- | --- | --- | --- |
| Phe Glu Glu Glu (FEEE; listed as Sus scrofa) [CMS032] | 87 ± 5 % | 157 ± 37*^@^ Unit | 131 ± 24*^@^ Unit | 0.21 ± 0.06 % | 0.29 ± 0.04*^@^ % | 0.27 ± 0.03*^@^ % | 0.25 ± 0.03*^@^ % |  |  |  |  |  |  |  |  |  |  |  |  |  |
| KAVGHLDDLPGAL [CMS008] |  | 97 ± 26*^@ Unit |  | 0.22 ± 0.07*^ % |  | 0.20 ± 0.04*^@^ % | 0.21 ± 0.03*^@^ % | 6.4 ± 0.5 | 6.5 ± 1.2 | 46 ± 12 | 92 ± 4*^@^ % | 82 ± 15*^@ Unit | 0.39 ± 0.08 |  |  |  |  |  |  |  |
| FNFVPP [CMS003] |  | 91 ± 24*^@ Unit | 52 ± 11* Unit |  |  |  |  | 6.9 ± 0.9*^ | 6.6 ± 0.7 |  |  | 96 ± 18*^@ Unit |  | 85 ± 6 | 2 ± 1* Unit | 0.40 ± 0.04 |  |  |  |  |
| PTTKTYFPHF [CMS001] |  | 110 ± 24*^@ Unit |  |  | 0.22 ± 0.05 % |  |  |  |  |  |  |  |  | 85 ± 10 |  | 0.43 ± 0.07 | 0.40 ± 0.05 |  |  |  |
| Phe Val Asn Asp (FVND; listed as Sus scrofa) [CMS035] | 90 ± 10 % | 176 ± 39*^@^ Unit | 97 ± 10*^@^ Unit |  | 0.21 ± 0.04 % |  |  | 6.9 ± 0.9*^ |  | 76 ± 10 |  | 88 ± 16*^@ Unit |  | 72 ± 9 |  |  |  |  |  |  |
| IGMESAGIHETTY [CMS016] | 91 ± 7*^@^ % | 93 ± 32*^@ Unit |  |  | 0.22 ± 0.06 % | 0.20 ± 0.03*^@^ % | 0.18 ± 0.05 % | 6.9 ± 0.8*^ |  |  |  | 143 ± 38*^@^ Unit |  |  |  |  |  |  |  |  |
| PSIVGRPRHQGVM [CMS015] |  | 94 ± 37*^@ Unit | 54 ± 9*^@ Unit |  | 0.20 ± 0.08 % |  |  |  |  |  |  | 136 ± 22*^@^ Unit |  | 78 ± 8 | 13 ± 4* Unit | 0.36 ± 0.07 |  | 0.38 ± 0.15 |  |  |
| Tyr Ser Leu (YSL; listed as Sus scrofa) [CMS024] | 89 ± 8 % | 171 ± 39*^@^ Unit |  |  | 0.23 ± 0.06*^ % | 0.27 ± 0.02*^@^ % |  |  | 6.4 ± 1.0 |  | 78 ± 3 % | 75 ± 29*^@ Unit |  |  | 98 ± 6*^@^ Unit | 0.34 ± 0.05 |  |  | 6.7 ± 0.5*^ | 6.6 ± 0.7 |
| LRVAPEEHPTL [CMS009] |  | 79 ± 18*^@ Unit | 13 ± 5* Unit |  |  |  |  | 6.9 ± 0.9*^ |  |  | 92 ± 6*^@^ % | 113 ± 22*^@^ Unit |  |  | 2 ± 1* Unit | 0.41 ± 0.03 |  |  |  |  |
| Pro Glu Asn Phe (PENF; listed as Sus scrofa) [CMS034] |  | 172 ± 37*^@^ Unit | 136 ± 11*^@^ Unit |  | 0.27 ± 0.06*^@^ % | 0.19 ± 0.04*^ % | 0.20 ± 0.05*^ % |  |  |  | 90 ± 5 % |  |  |  | 20 ± 2* Unit |  |  |  |  |  |
| VGMGQKDSY [CMS019] |  | 118 ± 20*^@^ Unit |  |  | 0.24 ± 0.02*^@^ % | 0.20 ± 0.03*^@^ % | 0.19 ± 0.02 % | 6.8 ± 0.6*^ |  |  |  | 91 ± 26*^@ Unit |  |  | 12 ± 3* Unit | 0.63 ± 0.08 |  |  |  | 6.7 ± 0.9*^ |
| VAPEEHPTLLTEAPLNPK [CMS010] | 91 ± 4*^@^ % |  |  | 0.21 ± 0.03 % | 0.27 ± 0.05*^@^ % |  | 0.19 ± 0.04 % | 7.1 ± 0.7*^ |  |  | 82 ± 9 % | 112 ± 30*^@^ Unit | 0.38 ± 0.05 |  | 10 ± 3* Unit |  |  |  |  |  |
| RVAPEEHPTL [CMS011] |  | 115 ± 27*^@^ Unit | 67 ± 9*^@ Unit |  | 0.22 ± 0.04 % |  |  | 6.4 ± 1.1 |  | 79 ± 3 | 76 ± 10 % | 188 ± 16*^@^ Unit |  |  | 5 ± 3* Unit | 0.41 ± 0.04 |  |  |  |  |
| B1 | 77 ± 8 % | 37 ± 10 Unit | 37 ± 10 Unit | 0.15 ± 0.04% | 0.15 ± 0.04% | 0.15 ± 0.04% | 0.15 ± 0.04% | 6.4 ± 0.9 | 6.4 ± 0.9 | 72 ± 9 | 80 ± 8 % | 37 ± 10 Unit | 0.50 ± 0.04 | 73 ± 10 | 37 ± 10 Unit |  | 0.50 ± 0.04 |  | 6.4 ± 0.9 | 6.4 ± 0.9 |
